According to publication PMC8543028 (Infection and Drug Resistance, 2021):

Test system: M. tuberculosis-209
Type: cell-based, Mycobacterium tuberculosis

## O=[N+]([O-])c1ccc(/C(O)=C/C(=S)S)cc1 [Compound 11e, (Z)-3-hydroxy-3-(4-nitrophenyl)-prop-2-enedithioic acid]
  MIC100 in Mtb-209: active
